{
  "source": "patent US20240165216A1",
  "about": "“NOVEL R[…] OF MYC[…] AND USE OF SAME” (priority 2021, published 2024)",
  "key": {"MIF": {"test_system": "MIF", "assay": "MC38 model, co-administration with cisplatin: anti-MIF antibody titer and serum cytokines", "type": "in vivo, mouse", "conditions": "versus control group; FIG. 33", "from_the_text": "Thus, it was considered that the production of anti-MIF antibody increased, and it was expected that the production of serum cytokines, which is a measure of the increase in immune activity in the body, would also be increased."}, "[1]": {"test_system": "immune cells secreting IFN-γ and TNF-α", "assay": "MC38 model, co-administration with cisplatin: flow cytometry of cancer tissue", "type": "in vivo, mouse", "conditions": "versus control group; FIG. 34c"}},
  "data": [
    {"molecule": "N.N.[Cl][Pt][Cl]", "note": "[cisplatin]", "values": [
      {"measurement": "serum cytokine (IFN-γ and TNF-α) levels", "setting": "MIF", "result": "significantly increased"},
      {"measurement": "TCRγδ T cells secreting IFN-γ in cancer tissue", "setting": "[1]", "result": "increased"}
    ]}
  ]
}
